“And” between values parts separate entries of the source, which are not always exact repeats. Equal entries are not always repeated.
How the values were obtained:
Assay type in all cases: physicochemical
[1] = Residual unreacted amustaline by LCMS, Example 4 (1-, 2- or 3-container kits); conditions: for Residual amustaline levels in pathogen-inactivated whole blood, 20 hr / Residual amustaline levels in pathogen-inactivated whole blood, 22 hr / Residual amustaline levels in pathogen-inactivated whole blood, 24 hr / Residual amustaline levels in pathogen-inactivated whole blood, 26 hr: 22° C.
Experimental: Another study was performed to evaluate the preparation of pathogen-inactivated whole blood using amustaline and GSH, in 1-container, 2-container or 3-container kits of the present disclosure. Six ABO-matched whole blood units in anticoagulant were pooled and split into seven units of ~450 mL. The seven whole blood units were subjected to pathogen inactivation under one of three conditions—with no transfer step between containers, one transfer step between two containers, or two transfer steps between three containers (Table 5). Amustaline and GSH were added to the whole blood units by sterile docking of a filter set as previously described to the tubing of an input port of the first container that contained the whole blood. Unit 1 was treated with amustaline and GSH at 0.2 mM and 2.0 mM final concentrations, respectively, in the first container and incubated at 22° C., with samples taken at 20, 22, 24 and 26 hours, with no further container transfers. For units 2-4, amustaline and GSH were added to the whole blood (0.2 mM and 2.0 mM final concentrations, respectively) in the first container and incubated at 22° C. for 20 hours. A sample was taken at 20 hours, along with transfer to a second bag and further incubation at 22° C., with additional sampling at 2 hour intervals (22, 24 and 26 hr). For units 5-7, amustaline and GSH were added to the whole blood (0.2 mM and 2.0 mM final concentrations, respectively) in the first container and the mixture transferred to a second container, followed by incubation at 22° C. for 20 hours. A sample was taken at 20 hours, along with transfer to a third bag and further incubation at 22° C., with additional sampling at 2 hour intervals (22, 24 and 26 hr).
(§1) Samples were analyzed by LCMS to determine the level of residual, unreacted amustaline as previously described.

[2] = Residual unreacted amustaline by LCMS, Example 2 (3-container kit)
Experimental: Another study was performed to evaluate the effect of container transfer on residual levels of amustaline after pathogen-inactivation of whole blood using a 3-container kit of the present disclosure to allow for one or two transfer steps from the initial (e.g., first) container and a similar filter set as Example 1. Six ABO matched whole blood units in anticoagulant were pooled and split into six ~450 mL units transferred into the first blood bag container of the kit comprising Transfufol 3226 PVC film (Renolit), followed by severing and sealing the pooled donor blood bag, and subsequent connection by tubing welding of a filter set to the same input port (e.g., attached tubing) of the first container, for transferring amustaline and GSH into the whole blood. Amustaline and GSH were added to the whole blood units at final concentrations of 0.2 mM and 2.0 mM, respectively, followed by transfer of the mixture to the second bag (Transfufol 3226 PVC film) and incubated at 22° C. At 22 hr, samples were taken for analysis along with transfer of the mixture to the third bag (Transfufol 3226 PVC film), followed by further incubation at 22° C., with additional samples taken for analysis at 24 hr (i.e., 2 hr post-final transfer) and 26 hr (i.e., 4 hr post-final transfer).
as §1

[3] = Residual unreacted amustaline by LCMS, Example 5 (2-container kits, transfer at 18, 20 or 22 hr); conditions: Units 15-21, 2-container kit, transfer time 22 hr, 22° C.
Experimental: A further study was performed to evaluate additional conditions for the preparation of pathogen-inactivated whole blood using amustaline and GSH in 2-container kits of the present disclosure (e.g., FIG. 3b). Amustaline and GSH were added to the whole blood units at 0.2 mM and 2.0 mM final concentrations, respectively, in the first container. […] Following transfer to the second container the mixtures were further incubated at 22° C., with sampling for analysis at 2 hr intervals as shown in Table 6.
as §1

[4] = Residual unreacted amustaline by LCMS, Example 6 (treatment in blood collection bags); conditions: for Residual amustaline levels in pathogen-inactivated whole blood, 20 hr / Residual amustaline levels in pathogen-inactivated whole blood, 22 hr / Residual amustaline levels in pathogen-inactivated whole blood, 24 hr: 22° C.
Experimental: More specifically, whole blood units were collected from donors and treated in either Teruflex (Terumo, BB*AGD506A2) blood collection bags (Units 2-7) or Leucoflex (MacoPharma, LQE7230LD) blood collection bags (Units 9-14) containing anticoagulant and integrated into a kit of the present disclosure. Six ABO-matched whole blood units were pooled and split into a control unit and six test units of ~450 mL each. Control units 1 and 8 used kits described in previous Examples. A filter set as previously described was sterile docked to the whole blood transfer tubing of the container that had been sealed and severed, followed by addition of amustaline and GSH to final concentrations of about 0.2 mM and 2.0 mM, respectively. GSH was added first, followed by addition of amustaline within 30 minutes. The mixtures were then incubated at 22° C. for 20 hr, with samples taken for analysis and transfer of the mixtures to the second integrally connected container for test Units 2-7 and 9-14, followed by further incubation and sampling at 2 hr intervals (i.e., 22 hr, 24 hr) for all Units as shown in Table 7.

[5] = Unit 1, no transfer (1 bag kit)
[6] = Units 2-4, 1x transfer (2 bag kit), to second bag at 20 hr
[7] = Units 5-7, 2x transfer (3 bag kit), second container after addition, third bag at 20 hr
[8] = Unit 1, control unit (kit of previous Examples, not transferred), collection bag T
[9] = Unit 8, control unit (kit of previous Examples, not transferred), collection bag M
[10] = Units 2-7, treated in Teruflex (T) blood collection bag, to second container at 20 hr
[11] = Units 9-14, treated in Leucoflex (M) blood collection bag, to second container at 20 hr

For `O=C(CCNc1c2ccccc2nc2ccccc12)OCCN(CCCl)CCCl` [amustaline], the “level of amustaline after PI processing, 2-container and 3-container kits” value ([1]; 2-container and 3-container kits, after transfer at 20 hr) was “below the limit of quantitation”, the “Residual amustaline levels in pathogen-inactivated whole blood, 20 hr” value ([1]; 20 hr (at transfer to third bag), Units 5-7, 2x transfer (3 bag kit), second container after addition, third bag at 20 hr) was 1.47 nM and 1.46 nM and 1.53 nM and the “Residual amustaline levels in pathogen-inactivated whole blood, 20 hr” value ([1]; 20 hr (at transfer), Units 2-4, 1x transfer (2 bag kit), to second bag at 20 hr) was 1.53 nM and 1.65 nM and 1.66 nM. The “Residual amustaline levels in pathogen-inactivated whole blood, 20 hr” value ([1]; 20 hr, Unit 1, no transfer (1 bag kit)) was 1.47 nM, the “Residual amustaline levels in pathogen-inactivated whole blood, 22 hr” value (“Residual amustaline levels … 22 hr” below) [1, 5] was 1.54 nM and the “Residual amustaline levels … 22 hr” value [1, 6] was “BLOQ (BLOQ = Below Limit of Quantitation (e.g., < 0.75 nM))”. For the same compound, the “Residual amustaline levels … 22 hr” value [1, 7] was “BLOQ (BLOQ = Below Limit of Quantitation (e.g., < 0.75 nM))”, the “Residual amustaline levels in pathogen-inactivated whole blood, 24 hr” value (“Residual amustaline levels … 24 hr” below) [1, 5] was 1.39 nM and the “Residual amustaline levels … 24 hr” value [1, 6] was “BLOQ (BLOQ = Below Limit of Quantitation (e.g., < 0.75 nM))”. For the same compound, the “Residual amustaline levels … 24 hr” value [1, 7] was “BLOQ (BLOQ = Below Limit of Quantitation (e.g., < 0.75 nM))”, the “Residual amustaline levels in pathogen-inactivated whole blood, 26 hr” value (“Residual amustaline levels … 26 hr” below) [1, 5] was 1.32 nM and the “Residual amustaline levels … 26 hr” value [1, 6] was “BLOQ (BLOQ = Below Limit of Quantitation (e.g., < 0.75 nM))”. For the same compound, the “Residual amustaline levels … 26 hr” value [1, 7] was “BLOQ (BLOQ = Below Limit of Quantitation (e.g., < 0.75 nM))”, the “Residual amustaline levels … 22 hr” value ([2]; Units 1-6, 3-container kit (PVC), moved to second bag after amustaline/GSH addition, 22° C., 22 hr, at transfer to third bag) was 1.46 nM and 1.39 nM and 1.35 nM and 1.96 nM and 1.84 nM and 1.55 nM and the “Residual amustaline levels … 26 hr” value ([2]; Units 1-6, 3-container kit (PVC), third bag from 22 hr, 22° C., 26 hr (4 hr post-final transfer)) was “BLOQ (BLOQ = Below Limit of Quantitation (e.g., < 0.75 nM))”. For the same compound, the “residual amustaline levels after transfer to third bag” value ([2]; third bag after 22 hr, further 22° C. for 2 hr or 4 hr, all samples) was “below 1 nM”, the “Residual amustaline levels … 24 hr” value ([3]; 24 hr) was “BLOQ (BLOQ = Below Limit of Quantitation (e.g., <0.75 nM))” and the “Residual amustaline levels … 26 hr” value ([3]; 26 hr) was “BLOQ (BLOQ = Below Limit of Quantitation (e.g., <0.75 nM))”. For the same compound, the “Residual amustaline levels in pathogen-inactivated whole blood, 20 hr” value ([4]; 20 hr (at transfer), Units 2-7, treated in Teruflex (T) blood collection bag, to second container at 20 hr) was 2.12e-09 M and 2.32e-09 M and 1.29e-09 M and 1.62e-09 M and 1.53e-09 M and 1.92e-09 M, the “Residual amustaline levels in pathogen-inactivated whole blood, 20 hr” value ([4]; 20 hr (at transfer), Units 9-14, treated in Leucoflex (M) blood collection bag, to second container at 20 hr) was 1.36e-09 M and 1.32e-09 M and 1.44e-09 M and 1.34e-09 M and 1.49e-09 M and 1.4e-09 M and the “Residual amustaline levels in pathogen-inactivated whole blood, 20 hr” value ([4]; 20 hr, Unit 1, control unit (kit of previous Examples, not transferred), collection bag T) was 2.35e-09 M. The “Residual amustaline levels in pathogen-inactivated whole blood, 20 hr” value ([4]; 20 hr, Unit 8, control unit (kit of previous Examples, not transferred), collection bag M) was 2.62e-09 M, the “Residual amustaline levels … 22 hr” value [4, 8] was 1.61 nM and the “Residual amustaline levels … 22 hr” value [4, 9] was 1.93 nM. The “Residual amustaline levels … 22 hr” value [4, 10] was “BLOQ (BLOQ = Below Limit of Quantitation (e.g., < 0.75 nM))”, the “Residual amustaline levels … 22 hr” value [4, 11] was “BLOQ (BLOQ = Below Limit of Quantitation (e.g., < 0.75 nM))” and the “Residual amustaline levels … 24 hr” value [4, 8] was 1.81 nM. The “Residual amustaline levels … 24 hr” value [4, 9] was 1.85 nM, the “Residual amustaline levels … 24 hr” value [4, 10] was “BLOQ (BLOQ = Below Limit of Quantitation (e.g., < 0.75 nM))” and the “Residual amustaline levels … 24 hr” value [4, 11] was “BLOQ (BLOQ = Below Limit of Quantitation (e.g., < 0.75 nM))”. For the same compound, the “Residual amustaline levels, Units transferred to the second bag at 20 hr” value ([4]; Units treated in blood collection bags and transferred to the second bag at 20 hr) was “below the limit of quantitation”.

Reference: US12728186B2, “Methods and kits for preparing pathogen-inactivated whole blood” (priority 2018, dated 2026)
